Experimental data from the NIST ThermoML archive (doi:10.1016/j.tca.2010.09.010).

Conditions: Crystal, TG

[Cd+2].[I-].[I-] [cadmium iodide (CdI2)]
Conditions | vapor or sublimation pressure [kPa]
740 K | 0.2888
745 K | 0.3252
750 K | 0.3668
755 K | 0.4124
760 K | 0.4631
765 K | 0.5198
770 K | 0.5826
